Data taken from article PMC4592835 (Bioorganic & medicinal chemistry letters, 2015).

Legend:
[1] = test system: human metastatic breast cancer line, MDA-MB-231; settings: different experimental conditions; cited from earlier work
caspase-3/7 = experiment: Enzymatic activity of caspases-3/7 in treated MDA-MB-231 cells; type: cell-based, human; settings: MDA-MB-231 cells treated at 10 μM

| Structure (SMILES) | in vivo activity profile compared with M11, in words [1] | potency relative to monomer M11 in caspase-3/7 activation (caspase-3/7) |
| --- | --- | --- |
| CN[C@@H](C)C(=O)N[C@H]1CCCC[C@H]2CC[C@@H](C(=O)N[C@@H](c3ccccc3)c3cn(CCCCc4ccc(CCCCn5cc([C@@H](NC(=O)[C@@H]6CC[C@@H]7CCCC[C@H](NC(=O)[C@H](C)NC)C(=O)N76)c6ccccc6)nn5)cc4)nn3)N2C1=O [SM-164] | markedly improved activity profiles | – |
| CN[C@@H](C)C(=O)N[C@@H](CSCc1ccc(-c2ccc(CSC[C@H](NC(=O)[C@H](C)NC)C(=O)N3CCC[C@H]3C(=O)NC(c3ccccc3)c3ccccc3)cc2)cc1)C(=O)N1CCC[C@H]1C(=O)NC(c1ccccc1)c1ccccc1 [Compound D13] | – | ~ 2.5 × |
